Test results: ChEMBL document CHEMBL1159132, “A small library of peptidomimetics to systematically vary and test the effects of X1 constraints” (Bioorg Med Chem Lett, 1996)
Values joined by “and” are separate entries in the source; they are usually repeats but may differ in a detail not shown here. Equal values may be shown once.

Assay: Inhibition of radiolabeled neuropeptide FF binding to neuropeptide FF receptors in rat spinal cord
Design: concentration or dose not given beside the values
Conditions: concentration not given here

| Compound | inhibition |
| --- | --- |
| CC(C)C[C@@H](NC(=O)[C@H](Cc1ccccc1)NC(=O)CNC(=O)CNC(=O)[C@@H](N)Cc1ccc(O)cc1)C(=O)N[C@@H](CCCN=C(N)N)C(=O)N[C@@H](Cc1ccccc1)C(N)=O | 48% and 31% |
| CC(C)C[C@@H](NC(=O)[C@H](Cc1ccccc1)NC(=O)[C@@H](C)NC(=O)CNC(=O)[C@@H](N)Cc1ccc(O)cc1)C(=O)N[C@@H](CCCN=C(N)N)C(=O)N[C@@H](Cc1ccccc1)C(N)=O | 28% and 48% |
| CC(C)C[C@H](NC(=O)[C@H](Cc1ccccc1)NC(=O)CNC(=O)[C@H](C)NC(=O)[C@@H](N)Cc1ccc(O)cc1)C(=O)N[C@@H](CCCN=C(N)N)C(=O)N[C@@H](Cc1ccccc1)C(N)=O | 60% and 76% |
| CC(C)C[C@H](NC(=O)[C@H](Cc1ccccc1)NC(=O)[C@@H](C)NC(=O)[C@H](C)NC(=O)[C@@H](N)Cc1ccc(O)cc1)C(=O)N[C@@H](CCCN=C(N)N)C(=O)N[C@@H](Cc1ccccc1)C(N)=O | 58% and 65% |
| CC(C)[C@H]1CC1(NC(=O)[C@H](Cc1ccccc1)NC(=O)[C@@H](C)NC(=O)CNC(=O)[C@@H](N)Cc1ccc(O)cc1)C(=O)N[C@@H](CCCN=C(N)N)C(=O)N[C@@H](Cc1ccccc1)C(N)=O (single isomer, unassigned) | 27% |
| CC(C)C[C@@H](NC(=O)[C@H](Cc1ccccc1)NC(=O)[C@@H](C)NC(=O)[C@H](C)NC(=O)[C@@H](N)Cc1ccc(O)cc1)C(=O)N[C@@H](CCCN=C(N)N)C(=O)N[C@@H](Cc1ccccc1)C(N)=O | 69% and 63% |
| CC(C)[C@@H]1C[C@]1(NC(=O)[C@H](Cc1ccccc1)NC(=O)[C@@H](C)NC(=O)CNC(=O)[C@@H](N)Cc1ccc(O)cc1)C(=O)N[C@@H](CCCN=C(N)N)C(=O)N[C@@H](Cc1ccccc1)C(N)=O | 29% [middle of 4 runs] |
| CC(C)[C@H]1CC1(NC(=O)[C@H](Cc1ccccc1)NC(=O)[C@@H](C)NC(=O)[C@H](C)NC(=O)[C@@H](N)Cc1ccc(O)cc1)C(=O)N[C@@H](CCCN=C(N)N)C(=O)N[C@@H](Cc1ccccc1)C(N)=O (single isomer, unassigned; form 2) | 27% |
| CC(C)C[C@H](NC(=O)[C@H](Cc1ccccc1)NC(=O)[C@@H](C)NC(=O)CNC(=O)[C@@H](N)Cc1ccc(O)cc1)C(=O)N[C@@H](CCCN=C(N)N)C(=O)N[C@@H](Cc1ccccc1)C(N)=O | 81% and 75% |
| CC(C)[C@H]1C[C@@]1(NC(=O)[C@H](Cc1ccccc1)NC(=O)[C@@H](C)NC(=O)[C@H](C)NC(=O)[C@@H](N)Cc1ccc(O)cc1)C(=O)N[C@@H](CCCN=C(N)N)C(=O)N[C@@H](Cc1ccccc1)C(N)=O | 32% and 35% |
| CC(C)[C@@H]1C[C@]1(NC(=O)[C@H](Cc1ccccc1)NC(=O)[C@@H](C)NC(=O)[C@H](C)NC(=O)[C@@H](N)Cc1ccc(O)cc1)C(=O)N[C@@H](CCCN=C(N)N)C(=O)N[C@@H](Cc1ccccc1)C(N)=O | 30% [middle of 4 runs] |
| CC(C)[C@H]1CC1(NC(=O)[C@H](Cc1ccccc1)NC(=O)[C@@H](C)NC(=O)[C@H](C)NC(=O)[C@@H](N)Cc1ccc(O)cc1)C(=O)N[C@@H](CCCN=C(N)N)C(=O)N[C@@H](Cc1ccccc1)C(N)=O (single isomer, unassigned; form 1) | 32% |
| CC(C)[C@H]1CC1(NC(=O)[C@H](Cc1ccccc1)NC(=O)CNC(=O)CNC(=O)[C@@H](N)Cc1ccc(O)cc1)C(=O)N[C@@H](CCCN=C(N)N)C(=O)N[C@@H](Cc1ccccc1)C(N)=O (single isomer, unassigned) | 57% |
| CC(C)[C@H]1C[C@@]1(NC(=O)[C@H](Cc1ccccc1)NC(=O)[C@@H](C)NC(=O)CNC(=O)[C@@H](N)Cc1ccc(O)cc1)C(=O)N[C@@H](CCCN=C(N)N)C(=O)N[C@@H](Cc1ccccc1)C(N)=O | 22% and 34% and 43% |
| CC(C)C[C@@H](NC(=O)[C@H](Cc1ccccc1)NC(=O)CNC(=O)[C@H](C)NC(=O)[C@@H](N)Cc1ccc(O)cc1)C(=O)N[C@@H](CCCN=C(N)N)C(=O)N[C@@H](Cc1ccccc1)C(N)=O | 35% and 40% |
| CC(C)C[C@H](NC(=O)[C@H](Cc1ccccc1)NC(=O)CNC(=O)CNC(=O)[C@@H](N)Cc1ccc(O)cc1)C(=O)N[C@@H](CCCN=C(N)N)C(=O)N[C@@H](Cc1ccccc1)C(N)=O | 98% and 84% |
